Measured values as given in the supplement of paper PMC10883282.

Key:
Assay in all cases: relative viability vs DMSO control (72 h) (fraction); higher = more viable cells
G401 = test system: G401
In short: (§1)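 Sarcoma cell lines in 384-well plates, seeded to reach 80–90% confluence, were given compound after 24 h and kept 72 h at 37 °C, 5% CO2, with 0.1% DMSO vehicle and a 5 µM positive control. Relative viability came from ATPLite as percent growth, averaged over up to triplicate wells. On the rescaled values, 1 equals full and 0 equals none.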

HS729 = test system: HS729
In short: as §1

HT1080 = test system: HT1080
In short: as §1

KHOS-240S = test system: KHOS-240S
In short: as §1

KHOS-NP = test system: KHOS-NP
In short: as §1

RD-ES = test system: RD-ES
In short: as §1

RD = test system: RD
In short: as §1

SK-LMS-1 = test system: SK-LMS-1
In short: as §1

SW1353 = test system: SW1353
In short: as §1

SW684 = test system: SW684
In short: as §1

SW872 = test system: SW872
In short: as §1

SYO-1 = test system: SYO-1
In short: as §1

CC[C@@H]1CN(C(=O)NCC(F)(F)F)C[C@@H]1c1cnc2cnc3[nH]ccc3n12 [Upadacitinib]
Conditions	relative viability
G401, 0.00017 µM	1.03
G401, 0.00051 µM	1.04
G401, 0.00152 µM	1
G401, 0.00457 µM	1.04
G401, 0.01372 µM	1.02
G401, 0.04115 µM	0.987
G401, 0.1235 µM	1.01
G401, 0.3704 µM	0.977
G401, 1.111 µM	0.953
G401, 3.333 µM	0.904
G401, 10 µM	0.842
HS729, 0.00017 µM	1.02
HS729, 0.00051 µM	0.954
HS729, 0.00152 µM	0.973
HS729, 0.00457 µM	0.97
HS729, 0.01372 µM	0.931
HS729, 0.04115 µM	0.946
HS729, 0.1235 µM	0.895
HS729, 0.3704 µM	0.837
HS729, 1.111 µM	0.834
HS729, 3.333 µM	0.805
HS729, 10 µM	0.761
HT1080, 0.00017 µM	1.06
HT1080, 0.00051 µM	1.06
HT1080, 0.00152 µM	1.08
HT1080, 0.00457 µM	1.05
HT1080, 0.01372 µM	1.07
HT1080, 0.04115 µM	1.06
HT1080, 0.1235 µM	1.05
HT1080, 0.3704 µM	1.062
HT1080, 1.111 µM	1.035
HT1080, 3.333 µM	1.01
HT1080, 10 µM	0.9733
KHOS-240S, 0.00017 µM	1.09
KHOS-240S, 0.00051 µM	1.06
KHOS-240S, 0.00152 µM	1.09
KHOS-240S, 0.00457 µM	1.1
KHOS-240S, 0.01372 µM	1.08
KHOS-240S, 0.04115 µM	1.09
KHOS-240S, 0.1235 µM	1.06
KHOS-240S, 0.3704 µM	1.04
KHOS-240S, 1.111 µM	0.982
KHOS-240S, 3.333 µM	0.919
KHOS-240S, 10 µM	0.708
KHOS-NP, 0.00017 µM	1.07
KHOS-NP, 0.00051 µM	1.09
KHOS-NP, 0.00152 µM	1.07
KHOS-NP, 0.00457 µM	1.08
KHOS-NP, 0.01372 µM	1.08
KHOS-NP, 0.04115 µM	1.088
KHOS-NP, 0.1235 µM	1.07
KHOS-NP, 0.3704 µM	1.06
KHOS-NP, 1.111 µM	1.03
KHOS-NP, 3.333 µM	0.965
KHOS-NP, 10 µM	0.912
RD, 0.00017 µM	1.07
RD, 0.00051 µM	1.08
RD, 0.00152 µM	1.13
RD, 0.00457 µM	1.13
RD, 0.01372 µM	1.14
RD, 0.04115 µM	1.14
RD, 0.1235 µM	1.08
RD, 0.3704 µM	1.14
RD, 1.111 µM	1.14
RD, 3.333 µM	1.07
RD, 10 µM	1
RD-ES, 0.00017 µM	0.981
RD-ES, 0.00051 µM	0.979
RD-ES, 0.00152 µM	1
RD-ES, 0.00457 µM	0.979
RD-ES, 0.01372 µM	1
RD-ES, 0.04115 µM	0.99
RD-ES, 0.1235 µM	0.97
RD-ES, 0.3704 µM	0.974
RD-ES, 1.111 µM	0.964
RD-ES, 3.333 µM	0.996
RD-ES, 10 µM	0.989
SK-LMS-1, 0.00017 µM	1.06
SK-LMS-1, 0.00051 µM	1.05
SK-LMS-1, 0.00152 µM	1.07
SK-LMS-1, 0.00457 µM	1.07
SK-LMS-1, 0.01372 µM	1.09
SK-LMS-1, 0.04115 µM	1.08
SK-LMS-1, 0.1235 µM	1.056
SK-LMS-1, 0.3704 µM	1.05
SK-LMS-1, 1.111 µM	1.02
SK-LMS-1, 3.333 µM	0.979
SK-LMS-1, 10 µM	0.772
SW684, 0.00017 µM	1.1
SW684, 0.00051 µM	1.19
SW684, 0.00152 µM	1.18
SW684, 0.00457 µM	1.18
SW684, 0.01372 µM	1.17
SW684, 0.04115 µM	1.16
SW684, 0.1235 µM	1.18
SW684, 0.3704 µM	1.13
SW684, 1.111 µM	1.17
SW684, 3.333 µM	1.11
SW684, 10 µM	1.03
SW872, 0.00017 µM	1.07
SW872, 0.00051 µM	1.07
SW872, 0.00152 µM	1.07
SW872, 0.00457 µM	1.03
SW872, 0.01372 µM	1.03
SW872, 0.04115 µM	1.01
SW872, 0.1235 µM	1.01
SW872, 0.3704 µM	0.963
SW872, 1.111 µM	1
SW872, 3.333 µM	0.97
SW872, 10 µM	0.85
SW1353, 0.00017 µM	1.04
SW1353, 0.00051 µM	1.04
SW1353, 0.00152 µM	1.02
SW1353, 0.00457 µM	1.04
SW1353, 0.01372 µM	0.997
SW1353, 0.04115 µM	1.01
SW1353, 0.1235 µM	1.001
SW1353, 0.3704 µM	0.942
SW1353, 1.111 µM	0.937
SW1353, 3.333 µM	0.84
SW1353, 10 µM	0.686
SYO-1, 0.00017 µM	1.04
SYO-1, 0.00051 µM	1
SYO-1, 0.00152 µM	0.988
SYO-1, 0.00457 µM	0.978
SYO-1, 0.01372 µM	0.958
SYO-1, 0.04115 µM	0.934
SYO-1, 0.1235 µM	0.927
SYO-1, 0.3704 µM	0.894
SYO-1, 1.111 µM	0.826
SYO-1, 3.333 µM	0.764
SYO-1, 10 µM	0.592

Clc1ccc(Nc2nnc(Cc3ccncc3)c3ccccc23)cc1 [Vatalanib]
Conditions	relative viability
G401, 0.00017 µM	0.965
G401, 0.00051 µM	0.975
G401, 0.00152 µM	0.954
G401, 0.00457 µM	0.973
G401, 0.01372 µM	0.979
G401, 0.04115 µM	1
G401, 0.1235 µM	0.947
G401, 0.3704 µM	0.985
G401, 1.111 µM	0.933
G401, 3.333 µM	0.876
G401, 10 µM	0.7239
HS729, 0.00017 µM	0.874
HS729, 0.00051 µM	0.906
HS729, 0.00152 µM	0.915
HS729, 0.00457 µM	0.88
HS729, 0.01372 µM	0.916
HS729, 0.04115 µM	0.896
HS729, 0.1235 µM	0.864
HS729, 0.3704 µM	0.871
HS729, 1.111 µM	0.832
HS729, 3.333 µM	0.898
HS729, 10 µM	0.934
HT1080, 0.00017 µM	1.01
HT1080, 0.00051 µM	0.995
HT1080, 0.00152 µM	0.989
HT1080, 0.00457 µM	1.01
HT1080, 0.01372 µM	0.993
HT1080, 0.04115 µM	0.9838
HT1080, 0.1235 µM	0.986
HT1080, 0.3704 µM	1
HT1080, 1.111 µM	1.021
HT1080, 3.333 µM	1.02
HT1080, 10 µM	1.07
KHOS-240S, 0.00017 µM	1.03
KHOS-240S, 0.00051 µM	1.06
KHOS-240S, 0.00152 µM	1.05
KHOS-240S, 0.00457 µM	1.04
KHOS-240S, 0.01372 µM	1.04
KHOS-240S, 0.04115 µM	1.01
KHOS-240S, 0.1235 µM	1.04
KHOS-240S, 0.3704 µM	1.03
KHOS-240S, 1.111 µM	0.986
KHOS-240S, 3.333 µM	1.01
KHOS-240S, 10 µM	1
KHOS-NP, 0.00017 µM	1.041
KHOS-NP, 0.00051 µM	1.054
KHOS-NP, 0.00152 µM	1.04
KHOS-NP, 0.00457 µM	1.06
KHOS-NP, 0.01372 µM	1.03
KHOS-NP, 0.04115 µM	1.05
KHOS-NP, 0.1235 µM	1.058
KHOS-NP, 0.3704 µM	1.062
KHOS-NP, 1.111 µM	1.07
KHOS-NP, 3.333 µM	1.07
KHOS-NP, 10 µM	1.08
RD, 0.00017 µM	1.09
RD, 0.00051 µM	1.1
RD, 0.00152 µM	1.1
RD, 0.00457 µM	1.095
RD, 0.01372 µM	1.093
RD, 0.04115 µM	1.08
RD, 0.1235 µM	1.09
RD, 0.3704 µM	1.12
RD, 1.111 µM	1.12
RD, 3.333 µM	1.11
RD, 10 µM	1.03
RD-ES, 0.00017 µM	0.987
RD-ES, 0.00051 µM	0.954
RD-ES, 0.00152 µM	0.975
RD-ES, 0.00457 µM	0.983
RD-ES, 0.01372 µM	0.967
RD-ES, 0.04115 µM	0.959
RD-ES, 0.1235 µM	0.965
RD-ES, 0.3704 µM	0.956
RD-ES, 1.111 µM	0.989
RD-ES, 3.333 µM	0.98
RD-ES, 10 µM	0.947
SK-LMS-1, 0.00017 µM	1.03
SK-LMS-1, 0.00051 µM	1.02
SK-LMS-1, 0.00152 µM	0.992
SK-LMS-1, 0.00457 µM	1
SK-LMS-1, 0.01372 µM	1.026
SK-LMS-1, 0.04115 µM	1
SK-LMS-1, 0.1235 µM	1.016
SK-LMS-1, 0.3704 µM	0.9565
SK-LMS-1, 1.111 µM	0.967
SK-LMS-1, 3.333 µM	0.938
SK-LMS-1, 10 µM	0.858
SW684, 0.00017 µM	1.13
SW684, 0.00051 µM	1.0999
SW684, 0.00152 µM	1.09
SW684, 0.00457 µM	1.11
SW684, 0.01372 µM	1.11
SW684, 0.04115 µM	1.1
SW684, 0.1235 µM	1.08
SW684, 0.3704 µM	1.12
SW684, 1.111 µM	1.09
SW684, 3.333 µM	1.03
SW684, 10 µM	1.03
SW872, 0.00017 µM	1.01
SW872, 0.00051 µM	1.01
SW872, 0.00152 µM	1.02
SW872, 0.00457 µM	1.026
SW872, 0.01372 µM	0.9937
SW872, 0.04115 µM	1.02
SW872, 0.1235 µM	1.022
SW872, 0.3704 µM	1.021
SW872, 1.111 µM	1.02
SW872, 3.333 µM	1.03
SW872, 10 µM	0.971
SW1353, 0.00017 µM	0.9762
SW1353, 0.00051 µM	0.9786
SW1353, 0.00152 µM	0.939
SW1353, 0.00457 µM	0.962
SW1353, 0.01372 µM	0.935
SW1353, 0.04115 µM	0.9589
SW1353, 0.1235 µM	0.966
SW1353, 0.3704 µM	0.978
SW1353, 1.111 µM	0.93
SW1353, 3.333 µM	0.934
SW1353, 10 µM	0.881
SYO-1, 0.00017 µM	0.921
SYO-1, 0.00051 µM	0.915
SYO-1, 0.00152 µM	0.937
SYO-1, 0.00457 µM	0.926
SYO-1, 0.01372 µM	0.929
SYO-1, 0.04115 µM	0.929
SYO-1, 0.1235 µM	0.906
SYO-1, 0.3704 µM	0.882
SYO-1, 1.111 µM	0.807
SYO-1, 3.333 µM	0.735
SYO-1, 10 µM	0.651
